Here are results for 4 compounds from US9993001B2, “Herbicidal composition” (ISHIHARA SANGYO KAISHA, LTD., priority 2014, dated 2018).

The term inhibition denotes the change of the read-out against control, counted positive when it falls.

What all share (type): in vivo
Experiment [1] concerns annual bluegrass (Poa annua L.). As to the kind of experiment: Test Example 19: pot, soil treatment, metobromuron + chlorpropham. The conditions noted are these: 250 g/ha, soil treatment, pot, 26th day after treatment, read-out: Growth inhibition rate of annual bluegrass (%) Measured value.
Experiment [2] deals with barnyardgrass (Echinochloa crus-qalli L.). The experiment can be described thus: Test Example 1: soybean field, soil treatment, metobromuron + chlorpropham. The conditions noted are these: 916 g/ha, soil treatment, soybean field, 19th day after treatment, read-out: Growth inhibition rate of barnyardgrass (%) Measured value. From the text: When the herbicidal activity in a case where two active ingredients are combined, is larger than the simple sum of the respective herbicidal activities of the two active ingredients (the expected activity), it is called a synergistic effect. The activity expected by the combination of two active ingredients can be calculated as follows (Colby S. R., “Weed”, vol. 15, p. 20-22, 1967). E=α+β−(α×β[…]) where α: growth inhibition rate when treated with x (g/ha) of herbicide X, • β: growth inhibition rate when treated with y (g/ha) of herbicide Y, • E: growth inhibition rate expected when treated with x (g/ha) of herbicide X and y (g/ha) of herbicide Y. […]
On the 19th day after treatment, the state of growth of barnyardgrass was visually observed and evaluated in accordance with the following standards. The growth inhibition rate (%) [measured value] and the growth inhibition rate (%) [calculated value] calculated by the Colby's method, are shown in Table 2. […]

Experiment [3] relates to barnyardgrass (Echinochloa crus-galli L.). The experiment can be described thus: Test Example 18: pot, soil treatment, metobromuron + chlorpropham. The conditions noted are these: 500 g/ha, soil treatment, pot, 26th day after treatment, read-out: Growth inhibition rate of barnyardgrass (%) Measured value. From the text: (§1) When the herbicidal activity in a case where two active ingredients are combined, is larger than the simple sum of the respective herbicidal activities of the two active ingredients (the expected activity), it is called a synergistic effect. The activity expected by the combination of two active ingredients can be calculated as follows (Colby S. R., “Weed”, vol. 15, p. 20-22, 1967). E=α+β−(α×β[…]) where α: growth inhibition rate when treated with x (g/ha) of herbicide X, • β: growth inhibition rate when treated with y (g/ha) of herbicide Y, • E: growth inhibition rate expected when treated with x (g/ha) of herbicide X and y (g/ha) of herbicide Y.
(§2) On the 19th day after treatment, the state of growth of barnyardgrass was visually observed and evaluated in accordance with the following standards. The growth inhibition rate (%) [measured value] and the growth inhibition rate (%) [calculated value] calculated by the Colby's method, are shown in Table 2.
(§3) Growth inhibition rate (%)=inhibition rate) (%) of 0 (equivalent to the non-treated area) to 100 (complete kill)
(§4) Soil was put into a 1/300,000 ha pot, and seeds of barnyardgrass (Echinochloa crus-galli L.) were sown. […]
(§5) On the 26th day after treatment, the state of growth of barnyardgrass was visually observed and evaluated in the same manner as in Test Example 1.

Experiment [4] concerns giant foxtail (Setaria faberi Herrm.). As to the kind of experiment: Test Example 16: pot, soil treatment, metobromuron + chlorpropham. The following applies: soil treatment, pot, 21st day after treatment, read-out: Growth inhibition rate of giant foxtail (%) Measured value.
Source text: as §1, §2, §3
(§6) Soil was put into a 1/300,000 ha pot, and seeds of barnyardgrass (Echinochloa crus-galli L.) were sown. On the day after seeding, predetermined amounts of SC containing metobromuron as active ingredient (same as in Test Example 1) and EC containing chlorpropham as active ingredient (same as in Test Example 1) were diluted with water corresponding to 1,000 L per hectare and applied for soil treatment.
(§7) On the 21st day after treatment, the state of growth of barnyardgrass was visually observed and evaluated in the same manner as in Test Example 1.
The test was carried out in the same manner as in Test Example 15 except that barnyardgrass (Echinochloa crus-galli L.) was changed to giant foxtail (Setaria faberi Herrm.), to obtain the results as shown in Table 17.

Experiment [5] relates to barnyardgrass (Echinochloa crus-galli L.). The experiment can be described thus: Test Example 32: pot, soil treatment, metobromuron + chlorpropham. The conditions noted are these: soil treatment, pot, 26th day after treatment, read-out: Growth inhibition rate of barnyardgrass (%) Measured value.
Source text: as §1, §2, §3, §6, §5

In experiment [6] the test system is common lambsquarters (Chenopodium album L.). The experiment can be described thus: Test Example 20: pot, soil treatment, metobromuron + chlorpropham. The conditions noted are these: soil treatment, pot, 26th day after treatment, read-out: Growth inhibition rate of common lambsquarters (%) Measured value.
Source text: as §1, §2, §3, §6, §5
The test was carried out in the same manner as in Test Example 18 except that barnyardgrass (Echinochloa crus-galli L.) was changed to common lambsquarters (Chenopodium album L.), to obtain the results as shown in Table 21.

The subject of experiment [7] is barnyardgrass (Echinochloa crus-galli L.). The experiment can be described thus: Test Example 15: pot, soil treatment, metobromuron + chlorpropham. The following applies: 750 g/ha, soil treatment, pot, 21st day after treatment, read-out: Growth inhibition rate of barnyardgrass (%) Measured value.
Source text: as §1, §2, §3, §4, §7

Experiment [8] has as its system black nightshade (Solanum nigrum L.). As to the kind of experiment: Test Example 17: pot, soil treatment, metobromuron + chlorpropham. The following applies: soil treatment, pot, 21st day after treatment, read-out: Growth inhibition rate of black nightshade (%) Measured value.
Source text: as §1, §2, §3, §6, §7
The test was carried out in the same manner as in Test Example 15 except that barnyardgrass (Echinochloa crus-galli L.) was changed to black nightshade (Solanum nigrum L.), to obtain the results as shown in Table 18.

The test system of experiment [9] is large crabgrass (Diqitaria sanquinalis L.). As to the kind of experiment: Test Example 11: corn field, foliar treatment, metobromuron + nicosulfuron. The following applies: Digitaria sanguinalis; 30 g/ha; foliar treatment at 1.5 to 2.0 leaf stage, corn field; 30th day after treatment; read-out: Growth inhibition rate of large crabgrass (%) Measured value.
Source text: as §1, §2
(§8) Growth inhibition rate (%)=inhibition rate) (%) of 0 (equivalent to the non-treated area) to 100 (complete kill) […]
On the 30th day after treatment, the state of growth of large crabgrass was visually observed and evaluated in the same manner as in Test Example 1.

In experiment [10] the test system is common purslane (Portulaca oleracea L.). As to the kind of experiment: Test Example 12: corn field, soil treatment, metobromuron + nicosulfuron. The following applies: 30 g/ha, soil treatment, corn field, 30th day after treatment, read-out: Growth inhibition rate of common purslane (%) Measured value.
Source text: as §1, §2, §8
On the 30th day after treatment, the state of growth of common purslane (Portulaca oleracea L.) which occurred naturally, was visually observed and evaluated in the same manner as in Test Example 1.

Another experiment deals with polygonaceae weeds. The experiment can be described thus: Test Example 10: corn field, soil treatment, metobromuron + pendimethalin. The conditions noted are these: 600 g/ha; soil treatment, corn field; 49th day after treatment; read-out: Growth inhibition rate of Polygonaceae weeds (%) Measured value.
Source text: as §1, §2, §8
On the 49th day after treatment, the state of growth of polygonaceae weeds which occurred naturally, was visually observed and evaluated in the same manner as in Test Example 1, The results are shown in Table 11.

Experiment [11] concerns large crabgrass (Digitaria sanquinalis L.). The experiment can be described thus: Test Example 28: pot, soil treatment, metobromuron + pendimethalin. The conditions noted are these: 62.5 g/ha, soil treatment, pot, 27th day after treatment, read-out: Growth inhibition rate of large crabgrass (%) Measured value.
Source text: as §1, §2, §3
Soil was put into a 1/300,000 ha pot, and seeds of large crabgrass (Digitaria sanquinalis L.) were sown. On the day after seeding, predetermined amounts of SC containing metobromuron as active ingredient (same as in Test Example 1) and EC containing pendimethalin as active ingredient (same as in Test Example 10) were diluted with water corresponding to 1,000 L per hectare and applied for soil treatment.
On the 27th day after treatment, the state of growth of large crabgrass was visually observed and evaluated in the same manner as in Test Example 1.

The test system of experiment [12] is common lambsquarters (Chenopodium album L.). As to the kind of experiment: Test Example 8: corn field, soil treatment, metobromuron + S-metolachlor. The following applies: 1000 g/ha, soil treatment, corn field, 28th day after treatment, read-out: Growth inhibition rate of common lambsquarters (%) Measured value.
Source text: as §1, §2, §8
On the 28th day after treatment, the state of growth of common lambsquarters (Chenopodium album L.) which occurred naturally, was visually observed and evaluated in the same manner as in Test Example 1.

For experiment [13], the system named is Nepalese Smartweed (Persicaria nepalensis (Meisn.) H. Gross). The experiment can be described thus: Test Example 6: adzuki bean field, soil treatment, metobromuron + S-metolachlor. The following applies: 1000 g/ha, soil treatment, adzuki bean field, 39th day after treatment, read-out: Growth inhibition rate of Nepalese Smartweed (%) Measured value.
Source text: as §1, §2, §3
In an adzuki bean agricultural field (9.6 square meters per one test section), predetermined amounts of SC containing metobromuron as active ingredient (same as in Test Example 1) and EC containing S-metolachlor as active ingredient (same as in Test Example 2) were diluted with water corresponding to 1,000 L per hectare and applied for soil treatment, prior to germination of adzuki bean and weeds.
On the 39th day after treatment, the state of growth of Nepalese Smartweed (Persicaria nepalensis (Meisn.) H. Gross) which occurred naturally, was visually observed and evaluated in the same manner as in Test Example 1.

Experiment [14] has the same test system. The experiment can be described thus: Test Example 3: soybean field, soil treatment, metobromuron + S-metolachlor. The following applies: 1000 g/ha, soil treatment, soybean field, 50th day after treatment, read-out: Growth inhibition rate of Nepalese Smartweed (%) Measured value.
Source text: as §1, §2, §8
On the 50th day after treatment, the state of growth of Nepalese Smartweed (Persicaria nepalensis (Meisn.) H. Gross) which occurred naturally, was visually observed and evaluated in the same manner as in Test Example 1.

Experiment [15] relates to spotted knotweed (Polygonum lapathifolium L.). As to the kind of experiment: Test Example 2: soybean field, soil treatment, metobromuron + S-metolachlor. The conditions noted are these: Persicaria lapathifolia; 1000 g/ha; soil treatment, soybean field; 50th day after treatment; read-out: Growth inhibition rate of spotted knotweed (%) Measured value.
Source text: as §1, §2, §8
On the 50th day after treatment, the state of growth of spotted knotweed was visually observed and evaluated in the same manner as in Test Example 1.

Experiment [16] has as its system redroot pigweed (Amaranthus retroflexus L.). As to the kind of experiment: Test Example 9: corn field, soil treatment, metobromuron + S-metolachlor. The conditions noted are these: 1000 g/ha, soil treatment, corn field, 49th day after treatment, read-out: Growth inhibition rate of redroot pigweed (%) Measured value.
Source text: as §1, §2, §8
On the 49th day after treatment, the state of growth of redroot pigweed (Amaranthus retroflexus L.) which occurred naturally, was visually observed and evaluated in the same manner as in Test Example 1.

On to `CC(C)OC(=O)Nc1cccc(Cl)c1` [Chlorpropham, isopropyl 3-chlorocarbanilate], for which the inhibition at 250 g/ha in experiment [1] worked out at 10%; in [5] (250 g/ha), 0%; in experiment [6] (250 g/ha), 30%. Also, in experiment [2], the inhibition at 916 g/ha was determined as 8%. The inhibition at 500 g/ha in experiment [3] and in [5] (500 g/ha) was 70% in each case. Also, the inhibition at 750 g/ha in [4] (750 g/ha), in [7] and in [8] (750 g/ha) was 0% each time. Moreover, the inhibition at 1000 g/ha in experiment [4] (1000 g/ha) was determined as 0%; in [6] (1000 g/ha), 50%; in experiment [8] (1000 g/ha), 0%. The inhibition at 125 g/ha in [5] (125 g/ha) amounted to 10%; in experiment [6] (125 g/ha), 20%.

As to `COc1cc(OC)nc(NC(=O)NS(=O)(=O)c2ncccc2C(=O)N(C)C)n1` [Nicosulfuron, 2-[(4,6-dimethoxypyrimidin-2-ylcarbamoyl)sulfamoyl]-N,N-dimethyl nicotinamide], the inhibition at 30 g/ha in experiment [9] was found to be 10%; in [10], 55%.

`CCC(CC)Nc1c([N+](=O)[O-])cc(C)c(C)c1[N+](=O)[O-]` [Pendimethalin, N-(1-ethylpropyl)-2,6-dinitro-3,4-xylidine]: in the experiment on polygonaceae weeds, the inhibition at 600 g/ha stood at 73%. In addition, the inhibition at 62.5 g/ha in [11] came to 70%.

`CCc1cccc(C)c1N(C(=O)CCl)[C@@H](C)COC` [S-Metolachlor, 2-chloro-N-(6-ethyl-o-tolyl)-N-[(1S)-2-methoxy-1-methylethyl]acetamide]: the inhibition at 1000 g/ha in experiment [12] was 69%; in [13] it was 75%; in [14], 10%; in experiment [15], 59%; in experiment [16], 45%.
